Laboratory results as given in PubChem BioAssay AID1963856 (Molecular Pharmacology Branch, DTP, NCI, 2024).

System: LG0567-F671-PDC KRAS tumor spheroid viability
Assay: Anticancer human tumor LG0567-F671-PDC patient-derived lung adenocarcinoma cell line growth inhibition [KRAS2]
Settings: spheroids with HUVEC and MSC; for IC50: curve of first compound; for viability, T/C: stronger effect = lower value
Source text: Multicellular complex tumor spheroid response to RAS pathway inhibitors in combination with a targeted agents in patient-derived cell lines with oncogenic KRAS variants from multiple cancer types
A high-throughput screen of multi-cell type tumor spheroids was designed to identify active combinations of targeted small molecules and KRAS pathway inhibitors. Complex spheroids include a stromal component modeled by human endothelial cells (HUVEC) and fibroblasts modeled by human mesenchymal stem cells (MSCs). The concentration ranges selected for each drug and investigational agent were based upon clinically achievable concentrations if the clinical Cmax of the agent was known.
Compounds. The drugs and investigational agents: BI-3406 (NSC825286), BAY-293 (NSC824723), batoprotafib (TNO155; NSC825523), sotorasib (AMG 510; NSC818433), MRTX1257 (NSC819558), elimusertib (BAY 1895344; NSC800525), molibresib (GSK525762; NSC774829), temuterkib (LY3214996; NSC803410), venetoclax (NSC766270), alisertib (NSC759677), olaparib (NSC753686), talazoparib (NSC767125), erdafitinib (NSC781556), ipatasertib (NSC767898), cabozantinib (NSC761068), nintedanib (NSC756659), abemaciclib (NSC768073), docetaxel (NSC628503), trametinib (NSC758246), and sapanisertib (NSC764658) were obtained from the National Cancer Institute (NCI) Developmental Therapeutics Program Chemical Repository. The FDA-approved anticancer drug set is available from the Developmental Therapeutics Program. […] The stock solutions were prepared in dimethyl sulfoxide (DMSO, Sigma-Aldrich, St. Louis, MO, cat. D2650) at 800-fold the tested concentration and stored at -70 degrees C prior to their use. All drugs and investigational agents were tested over a range starting from a high concentration at or near the clinical Cmax and decreasing in half-log increments. If the clinical Cmax for an agent had not been determined, the highest concentration tested was 10 microM.
Cell Culture. All cells were maintained in an incubator at 37 degrees C and 5% CO2 with 95% humidity. The PDC lines were cultured according to standard operating procedures established by the NCI PDMR (https://pdmr.cancer.gov/sops/default.htm). Briefly, all PDCs were thawed and cultured in Matrigel-coated flasks prepared with a working solution of 1X Ham's F-12 nutrient mix, without supplementation (Invitrogen, Waltham, MA, cat. 11765054), 100 U/mL penicillin-streptomycin (Invitrogen, cat. 15140122), and 2.5% Matrigel (Corning Inc., Corning, NY, cat. 354248) for the first three passages. All PDCs were cultured in complete DMEM/F-12 media containing advanced DMEM/F-12 (Invitrogen, cat. 12634028), 4.9% defined fetal bovine serum, heat inactivated (HyClone Laboratories Inc., Logan, UT, cat. SH30070.03HI), 389 ng/mL hydrocortisone (Sigma-Aldrich, cat. H4001), 9.7 ng/mL human EGF recombinant protein (Invitrogen, cat. PHG0313), 23.4 microg/mL adenine (Sigma-Aldrich, cat. A2786), 97.3 U/mL penicillin-streptomycin (Invitrogen, cat. 15140122), 1.9 mM L-glutamine (Invitrogen, cat. 25030081), and 9.7 microM Y-27632 dihydrochloride (Tocris Bioscience, Bristol, United Kingdom, cat. 1254). The PDCs were cultured in complete DMEM/F12 media without 9.7 microM Y-27632 dihydrochloride for at least two passages prior to the screen. The established cell line HOP-62 was cultured in RPMI 1640 medium, HEPES (Invitrogen, cat. 22400105) with 10% defined fetal bovine serum (HyClone Laboratories Inc., cat. SH30070.03) and 2 mM L-glutamine (Invitrogen, cat. 25030081). The pooled donor HUVEC were cultured in endothelial cell growth medium 2 (PromoCell, Heidelberg, Germany, cat. C-22011) and the hMSC were cultured in mesenchymal stem cell growth medium 2 (PromoCell, cat. C-28009). For all experiments, HUVEC and hMSC were used at passages </=5, while the malignant cell lines were used at passages </=15. […]

[1] = second compound 0.1 µM, first compound 0.0316 µM
[2] = second compound 0.1 µM, first compound 0.1 µM
[3] = second compound 0.1 µM, first compound 0.316 µM
[4] = second compound 0.1 µM, first compound 1 µM
[5] = second compound 0.1 µM, first compound 3.16 µM
[6] = second compound 0.1 µM, first compound 10 µM
[7] = second compound 0.316 µM, first compound 0.0316 µM
[8] = second compound 0.316 µM, first compound 0.1 µM
[9] = second compound 0.316 µM, first compound 0.316 µM
[10] = second compound 0.316 µM, first compound 1 µM
[11] = second compound 0.316 µM, first compound 3.16 µM
[12] = second compound 0.316 µM, first compound 10 µM
[13] = second compound 1 µM, first compound 0.0316 µM
[14] = second compound 1 µM, first compound 0.1 µM
[15] = second compound 1 µM, first compound 0.316 µM
[16] = second compound 1 µM, first compound 1 µM
[17] = second compound 1 µM, first compound 3.16 µM
[18] = second compound 1 µM, first compound 10 µM
[19] = second compound 3.16 µM, first compound 0.0316 µM
[20] = second compound 3.16 µM, first compound 0.1 µM
[21] = second compound 3.16 µM, first compound 0.316 µM
[22] = second compound 3.16 µM, first compound 1 µM
[23] = second compound 3.16 µM, first compound 3.16 µM
[24] = second compound 3.16 µM, first compound 10 µM
[25] = second compound 10 µM, first compound 0.0316 µM
[26] = second compound 10 µM, first compound 0.1 µM
[27] = second compound 10 µM, first compound 0.316 µM
[28] = second compound 10 µM, first compound 1 µM
[29] = second compound 10 µM, first compound 3.16 µM
[30] = second compound 10 µM, first compound 10 µM
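Note: drug exposure lasted seven days after spheroids formed for three days.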
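Throughout, for viability, T/C: 100% = DMSO vehicle control viability.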

COC(=O)c1ccc2c(C(=Nc3ccc(N(C)C(=O)CN4CCN(C)CC4)cc3)c3ccccc3)c(O)[nH]c2c1 + C=CC(=O)N1CCN(c2nc(=O)n(-c3c(C)ccnc3C(C)C)c3nc(-c4c(O)cccc4F)c(F)cc23)C(C)C1
IC50 (second compound 0.1 µM): < 31.6 nM | IC50 (second compound 0.316 µM): < 31.6 nM | IC50 (second compound 1 µM): < 31.6 nM | IC50 (second compound 3.16 µM): < 31.6 nM | IC50 (second compound 10 µM): < 31.6 nM | viability, T/C [1]: 23.1% | viability, T/C [2]: 22% | viability, T/C [3]: 25.9% | viability, T/C [4]: 28.3% | viability, T/C [5]: 30% | viability, T/C [6]: 33% | viability, T/C [7]: 20.8% | viability, T/C [8]: 23.3% | viability, T/C [9]: 20.1% | viability, T/C [10]: 23.2% | viability, T/C [11]: 29.7% | viability, T/C [12]: 27.9% | viability, T/C [13]: 21.7% | viability, T/C [14]: 22% | viability, T/C [15]: 21.6% | viability, T/C [16]: 32% | viability, T/C [17]: 26.6% | viability, T/C [18]: 30.1% | viability, T/C [19]: 18.8% | viability, T/C [20]: 18.8% | viability, T/C [21]: 19.6% | viability, T/C [22]: 22.6% | viability, T/C [23]: 28% | viability, T/C [24]: 30.1% | viability, T/C [25]: 26.3% | viability, T/C [26]: 24.4% | viability, T/C [27]: 22.2% | viability, T/C [28]: 24.6% | viability, T/C [29]: 27.9% | viability, T/C [30]: 1.41%

O=C(c1cc(Cc2n[nH]c(=O)c3ccccc23)ccc1F)N1CCN(C(=O)C2CC2)CC1 + C=CC(=O)N1CCN(c2nc(=O)n(-c3c(C)ccnc3C(C)C)c3nc(-c4c(O)cccc4F)c(F)cc23)C(C)C1
IC50 (second compound 0.1 µM): < 31.6 nM | IC50 (second compound 0.316 µM): < 31.6 nM | IC50 (second compound 1 µM): < 31.6 nM | IC50 (second compound 3.16 µM): < 31.6 nM | IC50 (second compound 10 µM): < 31.6 nM | viability, T/C [1]: 24.8% | viability, T/C [2]: 21.5% | viability, T/C [3]: 23.1% | viability, T/C [4]: 26.7% | viability, T/C [5]: 29.2% | viability, T/C [6]: 33.6% | viability, T/C [7]: 23.1% | viability, T/C [8]: 22.8% | viability, T/C [9]: 25.1% | viability, T/C [10]: 21.5% | viability, T/C [11]: 26.9% | viability, T/C [12]: 30.4% | viability, T/C [13]: 25.8% | viability, T/C [14]: 25.6% | viability, T/C [15]: 25.2% | viability, T/C [16]: 23.6% | viability, T/C [17]: 25.4% | viability, T/C [18]: 30.4% | viability, T/C [19]: 25.1% | viability, T/C [20]: 27.8% | viability, T/C [21]: 25.7% | viability, T/C [22]: 23.8% | viability, T/C [23]: 23.9% | viability, T/C [24]: 31.8% | viability, T/C [25]: 32.1% | viability, T/C [26]: 32.1% | viability, T/C [27]: 31.9% | viability, T/C [28]: 30% | viability, T/C [29]: 30.4% | viability, T/C [30]: 28.3%
